Source: patent US9420813B2, “Sweetener” (AJINOMOTO CO., INC., priority 2007, dated 2016)
*1 amine or outer side, *2 acyl side, *3 side chain or, on linkers, in order; H or OH if unused. Where no end group is shown, it is not given here. [ ]: non-standard residue; d: D form. γGlu = O=C(O)[C@H](CCC(=O)[*:2])N[*:1]; Abu = CC[C@H](N)C(=O)O

Molecular target: T1, human calcium receptor (Homo sapiens, UniProt P41180)
T1 construct: expressed in transfected cells; host or cells: Xenopus laevis oocytes injected with receptor cRNA; the gene was amplified by PCR from human kidney cDNA (Clontech) and cloned in pBR322
T1 sequence (P41180 20-1078): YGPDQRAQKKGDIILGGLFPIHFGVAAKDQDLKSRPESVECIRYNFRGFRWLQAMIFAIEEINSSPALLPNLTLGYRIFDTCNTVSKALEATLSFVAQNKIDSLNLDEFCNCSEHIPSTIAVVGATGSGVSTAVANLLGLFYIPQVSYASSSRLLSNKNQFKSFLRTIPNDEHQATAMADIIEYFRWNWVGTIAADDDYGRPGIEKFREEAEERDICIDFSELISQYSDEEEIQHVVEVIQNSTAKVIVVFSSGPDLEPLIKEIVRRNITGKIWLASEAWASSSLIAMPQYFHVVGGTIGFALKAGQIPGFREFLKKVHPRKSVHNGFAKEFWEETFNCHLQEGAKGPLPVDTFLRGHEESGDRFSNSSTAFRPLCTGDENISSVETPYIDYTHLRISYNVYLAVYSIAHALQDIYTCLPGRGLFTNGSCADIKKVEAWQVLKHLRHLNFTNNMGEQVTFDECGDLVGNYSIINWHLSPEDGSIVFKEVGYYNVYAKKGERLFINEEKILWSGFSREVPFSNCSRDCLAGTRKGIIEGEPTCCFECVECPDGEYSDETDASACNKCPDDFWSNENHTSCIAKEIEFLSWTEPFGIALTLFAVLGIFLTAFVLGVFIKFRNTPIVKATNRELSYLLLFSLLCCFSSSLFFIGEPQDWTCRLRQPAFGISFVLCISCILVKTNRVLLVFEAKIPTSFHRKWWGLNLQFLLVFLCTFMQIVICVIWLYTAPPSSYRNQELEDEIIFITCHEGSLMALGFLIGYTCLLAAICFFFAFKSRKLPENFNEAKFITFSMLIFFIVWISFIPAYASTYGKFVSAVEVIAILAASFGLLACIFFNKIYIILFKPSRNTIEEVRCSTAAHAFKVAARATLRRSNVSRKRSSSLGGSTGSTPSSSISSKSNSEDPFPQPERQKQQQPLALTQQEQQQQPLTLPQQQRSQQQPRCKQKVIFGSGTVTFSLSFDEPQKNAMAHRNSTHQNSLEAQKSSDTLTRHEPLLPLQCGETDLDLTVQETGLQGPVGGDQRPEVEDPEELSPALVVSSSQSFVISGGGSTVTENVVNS
Test: Calcium receptor-activating effect, Ca ion concentration-dependent Cl ionic current in Xenopus laevis oocyte expression system
Type: cell-based
Settings: for Activity (lowest concentration at which current is detected): peptide added at 1,000 to 0.1 μM, Ca ion concentration-dependent Cl response current, oocytes voltage-clamped at −70 mV
Description: For evaluation of the calcium receptor-activating effect, Ca ion concentration-dependent Cl ionic current measuring method using a Xenopus laevis oocyte expression system was used. If activator is added to Xenopus laevis oocytes in which the calcium receptor is expressed, intracellular Ca ions increase. Then, the Ca ion concentration-dependent Cl channel opens, and the intracellular current value changes as an ionic current. By measuring the change in the intracellular current value, whether the calcium receptor-activating effect is present or not can be determined.
Specifically, the abdomen of Xenopus laevis was opened, and an egg batch was taken out and then treated with a 1% collagenase solution at 20° C. for 2 hours to obtain individual oocytes. Into each oocyte, 50 nl of 1 μg/μl receptor cRNA or 50 nl of sterilized water per oocyte were injected by using a micro glass capillary, and the oocytes were cultured at 18° C. for 2 to 3 days. For the culture, a solution obtained by adding 2 mM of pyruvic acid, 10 U/ml of penicillin and 10 μg/ml of streptomycin to the solution in Reference Example 2 was used. After the culture, a test solution was added to the oocytes injected with cRNA or sterilized water. Electrophysiological measurement was performed by using an amplifier Geneclamp 500 (manufactured by Axon) and recording software AxoScope 9.0 (manufactured by Axon). The oocytes were voltage-clamped at −70 mV by the double electrode voltage clamp method, and the intracellular current via the Ca ion concentration-dependent Cl ion was measured. The maximum value of the intracellular currents was defined as the response current value.
The ability of L-amino acids to activate the calcium receptor was evaluated by using the method described in Reference Example 6. That is, oocytes injected with cRNA of the calcium receptor or sterilized water were prepared, and voltage-clamped at −70 mV by the double electrode voltage clamp method. To the voltage-clamped oocytes, alanine (10 mM), arginine (10 mM), asparagine (10 mM), aspartic acid (10 mM), cysteine (10 mM), glutamine (10 mM), glutamic acid (10 mM), glycine (10 mM), histidine (10 mM), isoleucine (10 mM), leucine (10 mM), lysine (10 mM), methionine (10 mM), phenylalanine (10 mM), proline (10 mM), serine (10 mM), threonine (10 mM), tryptophan (10 mM), tyrosine (10 mM), valine (10 mM), ornithine (10 mM), taurine (10 mM) or hydroxyproline (10 mM) was added, and Ca ion concentration-dependent Cl response current was measured. […] 25, 2000, 97(9): 4814-9.
The effect of D-cysteine for activating a calcium receptor was evaluated by using the method described in Reference Example 6. That is, oocytes injected with cRNA of the calcium receptor or sterilized water were prepared, and voltage-clamped at −70 mV by the double electrode voltage clamp method. To the voltage-clamped oocytes, D-cysteine (10 mM), L-cysteine (10 mM), D-tryptophan (10 mM) or L-tryptophan (10 mM) was added, and Ca ion concentration-dependent Cl response current was measured.
The effect of peptide for activating calcium receptor was evaluated by using the method described in Reference Example 6. That is, oocytes injected with cRNA of the calcium receptor or sterilized water were prepared, and voltage-clamped at −70 mV by the double electrode voltage clamp method. To the voltage-clamped oocytes, γ-Glu-Cys-Gly (50 μM), γ-Glu-Cys(SNO)-Gly (50 μM), γ-Glu-Ala (50 μM), γ-Glu-Gly (500 μM), γ-Glu-Cys (50 μM), γ-Glu-Met (500 μM), γ-Glu-Thr (50 μM), γ-Glu-Val (50 μM), γ-Glu-Orn (500 μM), Asp-Gly (1 mM), Cys-Gly (1 mM), Cys-Met (1 mM), Glu-Cys (50 μM), Gly-Cys (500 μM) or Leu-Asp (1 mM) was added, and Ca ion concentration-dependent Cl response current was measured.
The ability of a peptide to activate calcium receptor was evaluated in the same manner as that of Reference Example 10.

Row | Molecule | Activity (lowest concentration at which current is detected) [µM] | effect for activating calcium receptor (Cl response current) (peptide added at 50 μM)
1 | [γGlu]-Val-Gly | 0.1 | 
2 | [γGlu]-[Abu]-Gly | 3 | 
3 | N[C@@H](CCC(=O)N[C@@H](CS)C(=O)NCC(=O)O)C(=O)O [γ-Glu-Cys-Gly, reference compound] |  | definite effect for activating calcium receptor
